From US20070185211A1, “Crystal forms of cinacalcet HCI and processes for their preparation” (priority 2005, published 2007) come the findings set out here.

This series can be described thus: Crystal form after drying/heating at 50° C. (solid state stability of the polymorph). Format: physicochemical. Here is the method:
X-Ray powder diffraction data were obtained using a SCINTAG powder X-Ray diffractometer model X'TRA equipped with a solid state detector and a variable gonimeter. Copper radiation of 1.5418 Å was used. A round standard aluminum sample holder with round zero background, and cavity of 25(diameter)*0.5(dept) mm. Scanning parameters range of: 2-40 deg. 2θ and continuous scan rate of 3 deg./min.
0.62 gr of Cinacalcet HCl was dissolved in Chloroform (6 ml) at room temperature. […] The slurry was stirred at room temperature for 4 minutes. […]

On to `C[C@@H](NCCCc1cccc(C(F)(F)F)c1)c1cccc2ccccc12.Cl` [Cinacalcet HCl crystal form III, (R)-α-methyl-N-[3-[3-(trifluoromethyl)phenyl]propyl]-1-naphthalenemethane amine], for which the “crystalline structure after drying” value (dried at 50° C. for 24 hours) was “maintained as form III”. In addition, the “crystal form obtained after heating” value (heated at 50° C. under vacuum for 22 hours) is recorded as “form I was obtained”.
